Activity calls are given as the source filed them.
Assays:
[1] = Luminescence-based counterscreen assay for KLF5 inhibitors: dose response cell-based high throughput screening assay to identify cytotoxic compounds using the IEC-6 intestinal epithelial cell line. [Related pubchem assays: 1700 (Primary screen.), 1834 (Confirmation screen.), 1858 (Summary AID.), 1905 (Counterscreen.)]; format: functional
[2] = target: Peroxisome proliferator-activated receptor gamma/Nuclear receptor coactivator 3 (Homo sapiens, UniProt P37231); format: functional;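 note: agonist potency for raising coactivator recruitment to the receptor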
[3] = target: Peroxisome proliferator-activated receptor gamma/Nuclear receptor coactivator 1 (Homo sapiens, UniProt P37231); format: functional;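 note: agonist potency as compounds enhance coactivator SRC-1 recruitment to PPARgamma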
[4] = target: Peroxisome proliferator-activated receptor gamma/Nuclear receptor coactivator 2 (Homo sapiens, UniProt P37231); format: functional;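 note: agonist potency for raising coactivator recruitment to the receptor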
[5] = target: T1, Microphthalmia-associated transcription factor (Homo sapiens, UniProt O75030); test: TRPM1 promoter luciferase signal decrease, dose response, MITF inhibitor project, cell-based, SK-MEL-5, cherry-picked, set 3 (AID 493073); format: functional
T1 sequence (O75030 whole entry): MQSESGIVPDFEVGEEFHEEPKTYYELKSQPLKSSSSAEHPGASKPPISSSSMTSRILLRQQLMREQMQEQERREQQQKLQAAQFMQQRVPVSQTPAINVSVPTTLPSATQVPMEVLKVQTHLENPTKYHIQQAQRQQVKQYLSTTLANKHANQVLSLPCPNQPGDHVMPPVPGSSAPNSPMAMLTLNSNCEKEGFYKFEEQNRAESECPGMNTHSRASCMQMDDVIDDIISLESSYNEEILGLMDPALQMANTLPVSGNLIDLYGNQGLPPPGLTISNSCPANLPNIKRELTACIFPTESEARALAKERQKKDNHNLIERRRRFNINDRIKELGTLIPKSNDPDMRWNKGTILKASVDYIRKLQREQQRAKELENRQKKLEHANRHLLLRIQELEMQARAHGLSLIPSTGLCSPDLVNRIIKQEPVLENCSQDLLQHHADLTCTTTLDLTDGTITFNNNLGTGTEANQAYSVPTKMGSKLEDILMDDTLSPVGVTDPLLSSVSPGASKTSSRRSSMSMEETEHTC

BJ [6] = test: cells; format: functional, cell-based; conditions: Homo sapiens
[7] = Luminescent dose response cell-based high throughput screening assay for inhibitors of the Janus kinase 2 mutant JAK2V617F. [Related pubchem assays: 1446 (Primary screen.), 1521 (Confirmation assay.), 1486 (Counter screen.)]; format: functional
BJ [8] = test: cytotoxicity toward BJ-TERT fibroblasts, dose response, cell-based, RAS-independent, luminescence (AID 1933); format: functional; conditions: Homo sapiens
[9] = target: T2, Replicative DNA helicase DnaB (Mycobacterium tuberculosis, UniProt P9WMR3); test: DnaB intein splicing inhibitors, dose response, biochemical, cell-free fluorescence (AID 449749); format: functional
T2 sequence (P9WMR3 whole entry): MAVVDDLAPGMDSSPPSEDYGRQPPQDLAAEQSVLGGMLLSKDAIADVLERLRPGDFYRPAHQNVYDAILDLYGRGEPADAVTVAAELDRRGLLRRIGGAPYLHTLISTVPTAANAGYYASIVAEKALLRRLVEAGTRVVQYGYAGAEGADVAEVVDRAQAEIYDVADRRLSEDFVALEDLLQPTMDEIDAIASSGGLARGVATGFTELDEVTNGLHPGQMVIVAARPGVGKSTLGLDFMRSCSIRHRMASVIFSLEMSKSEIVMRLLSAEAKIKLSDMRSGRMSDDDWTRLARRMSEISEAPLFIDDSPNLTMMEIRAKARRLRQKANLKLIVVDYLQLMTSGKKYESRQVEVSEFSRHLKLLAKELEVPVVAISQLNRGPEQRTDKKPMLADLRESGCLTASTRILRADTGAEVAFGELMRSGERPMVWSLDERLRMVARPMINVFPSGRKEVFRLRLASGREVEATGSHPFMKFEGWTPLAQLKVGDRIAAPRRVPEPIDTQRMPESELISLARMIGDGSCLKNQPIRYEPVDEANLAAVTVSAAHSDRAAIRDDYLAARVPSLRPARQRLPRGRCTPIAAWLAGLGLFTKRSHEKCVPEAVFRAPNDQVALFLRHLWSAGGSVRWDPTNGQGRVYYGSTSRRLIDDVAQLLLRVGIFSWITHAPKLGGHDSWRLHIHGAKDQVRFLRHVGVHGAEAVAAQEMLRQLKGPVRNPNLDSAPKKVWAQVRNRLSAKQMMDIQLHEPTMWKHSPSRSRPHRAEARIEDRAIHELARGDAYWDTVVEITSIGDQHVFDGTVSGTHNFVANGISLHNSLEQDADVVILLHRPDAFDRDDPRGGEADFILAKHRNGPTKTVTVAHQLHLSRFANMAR

BJ [10] = test: cytotoxicity toward BJ-TERT-LT-ST fibroblasts, dose response, cell-based, RAS-independent, luminescence (AID 1935); format: functional; conditions: Homo sapiens;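 note: BJ fibroblasts immortalized with TERT plus LT and ST oncogenes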
Paired box protein Pax-8 = Paired box protein Pax-8 (Homo sapiens, UniProt Q06710); test: inhibitors of PAX8-driven TPO luciferase reporter, dose response, RMG-I cells, cherry-pick (AID 687027); format: functional, cell-based;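 note: luciferase reporter driven by Pax8 target thyroperoxidase promoter measured by SteadyGlo luminescence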
[11] = non-specific cell cytotoxicity, dose response, cytotoxicity control for PAX8 inhibitor project, plate reader, dry powder samples (AID 743021); format: functional, cell-based
BJ [12] = test: cytotoxicity toward Ras-transformed BJeLR fibroblasts, dose response, cell-based, alamar blue fluorescence, cherrypicked samples (AID 2631); format: functional; conditions: Homo sapiens;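 note: confirmatory dose-response assay in RAS-dependent BJ fibroblasts engineered with TERT, LT and ST, with cytotoxicity read by fluorescence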
Protein RecA = target: T3, Protein RecA (Mycobacterium tuberculosis, UniProt P9WHJ3); test: Fluorescence Cell-Free Homogeneous Dose Retest to Identify Inhibitors of RecA-Intein Splicing Activity. [Related pubchem assays (depositor defined):AID2097, AID2223, AID489010, AID492950]; format: functional
T3 sequence (P9WHJ3 whole entry): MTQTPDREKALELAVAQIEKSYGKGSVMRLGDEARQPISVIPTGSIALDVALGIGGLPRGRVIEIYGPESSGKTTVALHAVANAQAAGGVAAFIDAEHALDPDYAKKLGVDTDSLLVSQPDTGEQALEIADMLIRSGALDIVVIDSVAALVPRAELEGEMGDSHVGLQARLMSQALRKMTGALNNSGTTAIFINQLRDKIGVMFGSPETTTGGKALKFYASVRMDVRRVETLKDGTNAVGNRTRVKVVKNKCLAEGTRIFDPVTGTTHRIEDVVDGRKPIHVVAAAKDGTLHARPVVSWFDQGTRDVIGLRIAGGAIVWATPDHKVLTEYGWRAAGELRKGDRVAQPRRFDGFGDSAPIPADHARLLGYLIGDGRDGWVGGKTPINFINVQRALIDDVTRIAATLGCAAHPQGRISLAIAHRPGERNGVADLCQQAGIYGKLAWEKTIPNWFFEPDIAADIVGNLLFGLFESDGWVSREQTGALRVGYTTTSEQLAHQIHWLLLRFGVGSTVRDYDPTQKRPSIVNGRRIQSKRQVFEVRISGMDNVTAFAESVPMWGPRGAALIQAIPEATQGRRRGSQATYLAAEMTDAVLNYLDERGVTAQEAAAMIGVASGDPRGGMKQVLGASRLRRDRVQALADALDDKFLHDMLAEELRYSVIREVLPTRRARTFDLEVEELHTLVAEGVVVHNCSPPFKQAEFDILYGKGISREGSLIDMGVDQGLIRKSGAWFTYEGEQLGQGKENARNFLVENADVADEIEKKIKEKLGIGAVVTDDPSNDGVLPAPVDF

[13] = cytotoxicity toward DRD oncogenic fibroblasts, dose response, cell-based, non-viral oncogenic, luminescence (AID 1934); format: functional; conditions: Homo sapiens
Protein skinhead-1 = target: T4, Protein skinhead-1 (Caenorhabditis elegans, UniProt P34707); format: functional
T4 sequence (P34707 whole entry): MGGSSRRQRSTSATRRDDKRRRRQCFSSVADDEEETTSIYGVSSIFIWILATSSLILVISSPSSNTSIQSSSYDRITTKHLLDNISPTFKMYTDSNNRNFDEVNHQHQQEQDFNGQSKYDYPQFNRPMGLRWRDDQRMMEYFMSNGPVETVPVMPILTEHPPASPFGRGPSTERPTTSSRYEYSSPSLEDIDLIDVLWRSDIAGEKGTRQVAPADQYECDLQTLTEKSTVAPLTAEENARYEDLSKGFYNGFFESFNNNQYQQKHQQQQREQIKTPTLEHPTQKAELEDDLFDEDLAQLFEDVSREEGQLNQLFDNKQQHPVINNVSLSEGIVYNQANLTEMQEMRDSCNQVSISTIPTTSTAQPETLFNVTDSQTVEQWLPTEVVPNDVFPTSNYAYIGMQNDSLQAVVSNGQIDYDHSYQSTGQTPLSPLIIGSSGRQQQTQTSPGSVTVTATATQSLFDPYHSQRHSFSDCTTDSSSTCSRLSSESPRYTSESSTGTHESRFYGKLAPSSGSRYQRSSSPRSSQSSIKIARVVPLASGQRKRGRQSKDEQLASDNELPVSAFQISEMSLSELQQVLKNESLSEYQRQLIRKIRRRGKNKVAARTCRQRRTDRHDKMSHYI

[14] = target: T5, Mannose-6-phosphate isomerase (Homo sapiens, UniProt P34949); test: human PMI inhibitors, high substrate, primary screen, biochemical, fluorescence intensity, high mannose 6-phosphate (AID 1220)
T5 sequence (P34949 whole entry): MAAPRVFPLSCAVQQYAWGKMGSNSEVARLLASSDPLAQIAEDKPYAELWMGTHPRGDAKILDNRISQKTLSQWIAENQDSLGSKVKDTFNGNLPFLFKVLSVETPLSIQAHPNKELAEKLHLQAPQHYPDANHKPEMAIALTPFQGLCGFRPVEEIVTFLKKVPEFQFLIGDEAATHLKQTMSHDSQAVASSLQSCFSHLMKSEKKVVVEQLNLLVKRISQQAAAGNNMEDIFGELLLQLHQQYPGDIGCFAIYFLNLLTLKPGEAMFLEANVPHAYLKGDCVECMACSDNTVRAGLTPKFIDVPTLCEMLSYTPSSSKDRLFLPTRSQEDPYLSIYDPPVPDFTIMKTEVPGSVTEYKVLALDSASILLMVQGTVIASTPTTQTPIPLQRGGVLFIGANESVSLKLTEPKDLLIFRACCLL

[15] = target: T5, Mannose-6-phosphate isomerase; test: inhibitors of human PMI, primary screen, biochemical, fluorescence intensity, coupled assay (AID 1209)
[16] = target: Peroxisome proliferator-activated receptor gamma/Nuclear receptor corepressor 2 (Homo sapiens, UniProt P37231+Q9Y618); test: Counterscreen for NR2E3 inverse agonists: TR-FRET-based biochemical high throughput dose response assay to identify inverse agonists of the interaction between peroxisome proliferator-activated receptor gamma (PPARg) and nuclear receptor co-repressor 2 (NCOR2).; format: functional
[17] = target: T6, Small ubiquitin-related modifier 1 (Homo sapiens, UniProt P63165); test: inhibitors of SUMO1 peptide binding, dose response, biochemical, fluorescence polarization, uHTS hits (AID 624382); format: functional; conditions: read-out: IC50_Mean
[18] = target: Photoreceptor-specific nuclear receptor (Homo sapiens, UniProt Q9Y5X4); test: NR2E3 inverse agonists, dose response, biochemical, TR-FRET (AID 463256); format: functional
[19] = target: T6, Small ubiquitin-related modifier 1; test: inhibitors of SUMO1 partner interactions, dose response, biochemical, FRET (AID 624383); format: functional; conditions: read-out: IC50_Mean
[20] = target: T7, Corticotropin-releasing factor receptor 2/Corticotropin-releasing factor-binding protein (Homo sapiens, UniProt P24387+Q13324); test: activators of CRF receptor 2 with binding protein – uHTS hits, confirmation (AID 602473); format: functional; conditions: read-out: EC50_Mean
T7 sequence (Q13324 whole entry): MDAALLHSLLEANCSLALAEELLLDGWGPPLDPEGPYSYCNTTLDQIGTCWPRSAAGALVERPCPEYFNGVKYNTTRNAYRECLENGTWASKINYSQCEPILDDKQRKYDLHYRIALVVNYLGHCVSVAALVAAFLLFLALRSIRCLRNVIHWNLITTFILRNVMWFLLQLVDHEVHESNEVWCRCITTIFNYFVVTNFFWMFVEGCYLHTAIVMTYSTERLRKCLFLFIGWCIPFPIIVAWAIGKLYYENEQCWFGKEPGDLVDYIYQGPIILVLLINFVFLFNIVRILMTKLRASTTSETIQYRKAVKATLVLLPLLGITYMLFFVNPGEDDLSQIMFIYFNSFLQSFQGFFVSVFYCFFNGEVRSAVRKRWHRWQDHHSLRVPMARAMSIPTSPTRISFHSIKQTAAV
T7 sequence (P24387 whole entry): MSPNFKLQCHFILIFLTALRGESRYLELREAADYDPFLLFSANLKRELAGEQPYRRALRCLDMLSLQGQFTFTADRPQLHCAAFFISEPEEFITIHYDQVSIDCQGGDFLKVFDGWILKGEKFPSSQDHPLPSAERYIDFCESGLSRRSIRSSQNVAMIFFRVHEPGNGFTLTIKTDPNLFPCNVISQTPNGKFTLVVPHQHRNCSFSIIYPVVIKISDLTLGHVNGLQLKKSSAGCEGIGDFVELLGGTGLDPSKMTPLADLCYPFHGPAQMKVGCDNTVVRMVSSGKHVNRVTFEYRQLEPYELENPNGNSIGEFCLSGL

[21] = target: T7, Corticotropin-releasing factor receptor 2/Corticotropin-releasing factor-binding protein; test: Dose Response confirmation of uHTS hits for small molecule antagonists of the CRF-binding protein and CRF-R2 receptor complex.; format: functional; conditions: read-out: IC50_Mean

T6 sequence (P63165 whole entry): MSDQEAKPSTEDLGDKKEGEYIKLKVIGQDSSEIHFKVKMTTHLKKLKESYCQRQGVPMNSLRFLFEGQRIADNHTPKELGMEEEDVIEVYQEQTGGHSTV
Photoreceptor-specific nuclear receptor, sequence (Q9Y5X4 whole entry): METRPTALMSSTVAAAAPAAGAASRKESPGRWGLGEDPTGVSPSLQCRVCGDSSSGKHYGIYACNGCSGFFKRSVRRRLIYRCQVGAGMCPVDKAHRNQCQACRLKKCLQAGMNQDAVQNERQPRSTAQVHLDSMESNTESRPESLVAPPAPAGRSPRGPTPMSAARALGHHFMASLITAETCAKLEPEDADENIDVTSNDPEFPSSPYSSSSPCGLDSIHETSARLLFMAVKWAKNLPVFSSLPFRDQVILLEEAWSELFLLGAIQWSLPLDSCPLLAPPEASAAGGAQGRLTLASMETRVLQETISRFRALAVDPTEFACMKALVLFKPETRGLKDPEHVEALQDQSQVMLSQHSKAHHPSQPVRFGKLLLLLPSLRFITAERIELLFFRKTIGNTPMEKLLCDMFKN
Peroxisome proliferator-activated receptor gamma/Nuclear receptor corepressor 2, sequence (P37231 whole entry): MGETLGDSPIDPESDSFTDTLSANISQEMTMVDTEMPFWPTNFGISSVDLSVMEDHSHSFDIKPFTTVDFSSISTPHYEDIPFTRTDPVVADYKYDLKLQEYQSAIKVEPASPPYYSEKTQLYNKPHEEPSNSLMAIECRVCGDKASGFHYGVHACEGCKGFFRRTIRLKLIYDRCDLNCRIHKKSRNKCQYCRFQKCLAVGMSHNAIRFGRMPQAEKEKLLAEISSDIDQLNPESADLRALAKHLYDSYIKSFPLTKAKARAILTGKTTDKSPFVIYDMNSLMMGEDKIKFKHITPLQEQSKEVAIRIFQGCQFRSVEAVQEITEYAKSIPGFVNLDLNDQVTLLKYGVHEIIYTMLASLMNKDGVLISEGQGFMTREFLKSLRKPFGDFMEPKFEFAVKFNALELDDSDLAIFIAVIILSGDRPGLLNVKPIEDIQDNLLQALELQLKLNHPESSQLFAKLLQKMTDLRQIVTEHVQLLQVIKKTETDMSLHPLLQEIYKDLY
Peroxisome proliferator-activated receptor gamma/Nuclear receptor corepressor 2, sequence (Q9Y618 whole entry): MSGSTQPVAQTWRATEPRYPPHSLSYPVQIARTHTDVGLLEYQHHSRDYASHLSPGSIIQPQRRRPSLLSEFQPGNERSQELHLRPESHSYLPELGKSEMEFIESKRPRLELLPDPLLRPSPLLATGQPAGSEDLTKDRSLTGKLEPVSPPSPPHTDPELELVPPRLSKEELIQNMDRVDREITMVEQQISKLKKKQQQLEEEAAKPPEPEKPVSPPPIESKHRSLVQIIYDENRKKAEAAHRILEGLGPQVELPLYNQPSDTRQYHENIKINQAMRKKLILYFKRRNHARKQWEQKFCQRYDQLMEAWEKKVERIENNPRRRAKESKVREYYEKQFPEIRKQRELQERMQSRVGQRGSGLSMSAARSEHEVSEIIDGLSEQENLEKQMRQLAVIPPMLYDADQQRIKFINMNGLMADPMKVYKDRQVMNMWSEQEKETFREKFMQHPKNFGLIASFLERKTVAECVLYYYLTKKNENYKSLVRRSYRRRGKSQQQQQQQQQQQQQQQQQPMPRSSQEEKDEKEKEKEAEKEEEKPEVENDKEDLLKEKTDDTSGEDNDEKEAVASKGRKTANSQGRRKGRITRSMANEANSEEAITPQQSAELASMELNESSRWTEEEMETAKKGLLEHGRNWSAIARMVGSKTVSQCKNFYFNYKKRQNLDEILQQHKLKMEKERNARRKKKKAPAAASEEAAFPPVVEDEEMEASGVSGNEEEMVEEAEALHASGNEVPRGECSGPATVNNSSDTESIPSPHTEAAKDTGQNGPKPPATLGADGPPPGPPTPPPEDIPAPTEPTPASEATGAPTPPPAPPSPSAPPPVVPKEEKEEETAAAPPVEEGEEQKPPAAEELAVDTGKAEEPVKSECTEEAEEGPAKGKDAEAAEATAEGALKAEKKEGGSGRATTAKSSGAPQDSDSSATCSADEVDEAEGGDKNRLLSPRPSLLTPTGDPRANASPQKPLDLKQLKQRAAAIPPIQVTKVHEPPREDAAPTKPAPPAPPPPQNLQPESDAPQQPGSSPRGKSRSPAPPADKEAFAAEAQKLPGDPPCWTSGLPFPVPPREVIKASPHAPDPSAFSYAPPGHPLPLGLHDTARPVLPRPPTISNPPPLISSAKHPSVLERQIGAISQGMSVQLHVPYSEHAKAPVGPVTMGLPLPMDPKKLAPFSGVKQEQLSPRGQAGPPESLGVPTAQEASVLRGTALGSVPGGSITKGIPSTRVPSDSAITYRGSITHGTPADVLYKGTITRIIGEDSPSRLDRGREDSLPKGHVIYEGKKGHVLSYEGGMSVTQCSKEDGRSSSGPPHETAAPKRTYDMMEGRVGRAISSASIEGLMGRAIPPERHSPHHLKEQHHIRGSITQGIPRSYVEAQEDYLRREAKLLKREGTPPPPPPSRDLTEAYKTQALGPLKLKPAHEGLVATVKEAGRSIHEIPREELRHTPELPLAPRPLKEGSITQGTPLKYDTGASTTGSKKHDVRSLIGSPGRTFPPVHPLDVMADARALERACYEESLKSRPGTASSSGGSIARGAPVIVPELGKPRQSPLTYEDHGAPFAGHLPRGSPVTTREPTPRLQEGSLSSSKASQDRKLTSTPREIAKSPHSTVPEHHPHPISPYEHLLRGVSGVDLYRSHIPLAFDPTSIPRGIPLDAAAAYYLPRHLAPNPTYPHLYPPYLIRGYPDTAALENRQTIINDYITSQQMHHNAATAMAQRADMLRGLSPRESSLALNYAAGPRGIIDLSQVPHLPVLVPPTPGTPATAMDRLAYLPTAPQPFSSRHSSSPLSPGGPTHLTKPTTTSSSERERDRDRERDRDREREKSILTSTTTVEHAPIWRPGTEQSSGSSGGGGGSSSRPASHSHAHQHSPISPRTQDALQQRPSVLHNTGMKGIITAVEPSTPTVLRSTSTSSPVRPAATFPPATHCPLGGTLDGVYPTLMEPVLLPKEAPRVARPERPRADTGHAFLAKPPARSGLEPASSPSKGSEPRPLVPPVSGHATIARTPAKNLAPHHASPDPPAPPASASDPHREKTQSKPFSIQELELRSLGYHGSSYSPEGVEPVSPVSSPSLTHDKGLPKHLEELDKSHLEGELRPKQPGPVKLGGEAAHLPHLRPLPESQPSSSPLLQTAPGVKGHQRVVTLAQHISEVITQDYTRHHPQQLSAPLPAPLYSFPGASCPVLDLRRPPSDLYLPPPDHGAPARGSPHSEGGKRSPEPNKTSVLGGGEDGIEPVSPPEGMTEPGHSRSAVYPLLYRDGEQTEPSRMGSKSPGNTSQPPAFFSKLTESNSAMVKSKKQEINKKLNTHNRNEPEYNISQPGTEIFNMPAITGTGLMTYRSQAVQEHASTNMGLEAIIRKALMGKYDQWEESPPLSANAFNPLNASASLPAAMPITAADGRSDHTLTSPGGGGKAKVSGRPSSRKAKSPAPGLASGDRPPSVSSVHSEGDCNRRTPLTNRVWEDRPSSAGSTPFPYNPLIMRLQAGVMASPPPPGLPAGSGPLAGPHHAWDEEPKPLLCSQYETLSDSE
Paired box protein Pax-8, sequence (Q06710 whole entry): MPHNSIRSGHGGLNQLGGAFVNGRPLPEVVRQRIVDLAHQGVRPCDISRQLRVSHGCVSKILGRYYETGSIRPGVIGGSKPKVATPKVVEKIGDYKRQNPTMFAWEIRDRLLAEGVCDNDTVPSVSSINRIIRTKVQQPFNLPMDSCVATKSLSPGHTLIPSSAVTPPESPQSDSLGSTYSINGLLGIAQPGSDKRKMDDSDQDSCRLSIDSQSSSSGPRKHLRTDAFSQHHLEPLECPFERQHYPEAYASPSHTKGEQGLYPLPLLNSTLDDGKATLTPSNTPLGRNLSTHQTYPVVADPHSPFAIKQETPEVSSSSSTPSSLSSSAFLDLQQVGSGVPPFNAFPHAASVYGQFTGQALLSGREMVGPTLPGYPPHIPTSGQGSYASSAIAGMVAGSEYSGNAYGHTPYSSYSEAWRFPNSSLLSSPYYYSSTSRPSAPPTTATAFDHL

COc1ccc2nc(SCC(=O)NC3CCCC3)c(C)cc2c1
IC50 [1]: 16 µM (not active)

Cc1cc(C)c(S(=O)(=O)Nc2ccc3[nH]c(O)nc3c2)c(C)c1
EC50 [2]: > 79.4 µM (not active) | EC50 [3]: > 79.4 µM (not active) | EC50 [4]: > 79.4 µM (not active)

COc1ccccc1N(C(=O)CCl)c1cn(C(C)=O)c2ccccc12
AC50 [5]: 8.82 µM (active) | EC50 (BJ [6]): 5.64 µM (active) | IC50 [7]: 1.2 µM (active) | EC50 (BJ [8]): 5.21 µM (inconclusive) | AC50 [9]: 12.8 µM (active) | EC50 (BJ [10]): > 150 µM (inconclusive) | AC50 (Paired box protein Pax-8): 1.56 µM (active) | AC50 [11]: 3.66 µM (active) | EC50 (BJ [12]): 1.52 µM (active) | EC50 (Protein RecA): 0.846 µM (active) | EC50 [13]: 3.11 µM (active)

CCN(CC)c1ccc2oc(=O)c(C)nc2c1
IC50 (Protein skinhead-1): > 100 µM (inactive) | AC50 [9]: > 380 µM (inactive) | IC50 [14]: 12.7 µM (active) | IC50 [15]: 10 µM (active) | EC50 (Protein RecA): 7.63 µM (active)

Cc1ccc(NC(=O)CSc2nc3ccccc3c3nc(CCc4c(C)n[nH]c4C)nn23)cc1F
IC50 [16]: 0.356 µM (active) | IC50 [17]: > 66.6 µM (inactive) | IC50 [18]: 0.474 µM (active) | IC50 [19]: 3.78 µM (active)

CC(=O)c1ccc(NC(=O)CSc2ccc(-c3ccc4c(c3)OCO4)nn2)cc1
IC50 [16]: 2.9 µM (active) | EC50 [20]: > 53 µM (inactive) | IC50 [21]: > 47.1 µM (inactive) | IC50 [18]: 3.53 µM (active)
